Key:
[1] = Efficacy of peracetylated beta cyclodextrin as HFA drug suspension stabiliser (phase separation recorded photographically); type: physicochemical; details: peracetylated β cyclodextrin at saturation level, phase separation much slower, suspension much finer, head space adhesion less
Method: First, reference samples of pure drugs in HFAs were prepared. Then samples with solubilised peracetylated beta (β) cyclodextrin and micronised drug were prepared. The concentration of drug in these samples was the same as in the reference samples. The cyclodextrin concentration was at saturation level.
The reference samples (pure drug) were prepared by weighing the drug in a PET vial. A valve was then crimped on the vial and propellant added under pressure. The vial was then sonicated for at least 15 minutes and left to equilibrate for one week.
The drug—cyclodextrin samples were prepared by weighing a known amount of drug in a PET vial. The vial was then crimped with a continuous valve. The solution of peracetylated beta (β) cyclodextrin was prepared thus: a large amount of cyclodextrin was placed in large metallic can, it was crimped and filled with one of the propellants. This can was left to equilibrate for at least a week at room temperature. When equilibration was reached, the saturated cyclodextrin solution was filtered through a […] PTFE filter into the PET vials containing the known drug amounts. This way the maximum amount of soluble cyclodextrin was used in the suspensions. The concentration of drugs in the vials was then calculated through accurate recording of the weights of propellant/cyclodextrin added.
The phase separation phenomenon present in both samples (pure drug and with the cyclodextrin) was then recorded photographically.

[2] = Solubility of peracetylated cyclodextrins in HFA propellants, assessed visually; type: physicochemical; details: equilibrated one week, visual; for solubility in HFA 134a: room temperature; for solubility in HFA 227: HFA 227, room temperature
Method: The solubility of peracetylated cyclodextrins (alpha, beta and gamma) in HFA propellants was assessed visually in clear PET vials crimped with a continuous pMDI valve. Known amounts of cyclodextrins were weighed into the PET vials. Continuous valves were crimped on the vial, and HFAs were added under pressure to the required amount. The samples were left to equilibrate over one week and were visually inspected. The solubility of the modified cyclodextrin at room temperature was evaluated by discriminating between samples that were clear by opposition to those samples that still had solid particles in suspension.

| Molecule | quality/stability of drug suspension with modified cyclodextrin versus pure drug sample ([1]; HFA 134a) | quality/stability of drug suspension with modified cyclodextrin versus pure drug sample ([1]; HFA 227) | solubility in HFA 134a [2] | solubility in HFA 227 [2] |
| --- | --- | --- | --- | --- |
| CC(C)(C)NCC(O)c1cc(O)cc(O)c1 (centres unmarked) [Terbutaline Sulphate] | much improved | far more stable | – | – |
| CC(=O)OCC1OC2OC3C(COC(C)=O)OC(OC4C(COC(C)=O)OC(OC5C(COC(C)=O)OC(OC6C(COC(C)=O)OC(OC7C(COC(C)=O)OC(OC1C(OC(C)=O)C2OC(C)=O)C(OC(C)=O)C7OC(C)=O)C(OC(C)=O)C6OC(C)=O)C(OC(C)=O)C5OC(C)=O)C(OC(C)=O)C4OC(C)=O)C(OC(C)=O)C3OC(C)=O (stereo not drawn) [peracetylated alpha (α) cyclodextrin] | – | – | above 1 % w/w | above 0.5 % w/w |
| peracetylated beta (β) cyclodextrin | – | – | above 1 % w/w | above 0.1 % w/w |
| CCCC1O[C@@H]2C[C@H]3[C@@H]4CCC5=CC(=O)C=C[C@]5(C)[C@H]4[C@@H](O)C[C@]3(C)[C@]2(C(=O)CO)O1 (some centres unmarked) [Budesonide] | improved | much improved | – | – |

— patent publication US20070104652A1, “Pharmaceutical spray formulation comprising a hydro fluor alkane and an acylated cyclodextrin” (priority 2003, published 2007)
